According to patent US12281084B2, “Acetyl-CoA synthetase 2 (ACSS2) inhibitors and methods using same” (The Wistar Institute, priority 2019, dated 2025):
“Also recorded” adds a separate entry of the source.

How the values were obtained:
BT474 cells = assay: RNA sequencing of BT474 cells under hypoxia and low lipid stress; assay type: cell-based, human; details: H1, RNA sequencing
Description: ACSS2 affects histone and transcription factor acetylation in the nucleus of cells which then affects gene transcription. It was thus tested if inhibition of ACSS2 affects hypoxia and lipid depletion induced transcriptional stress responses. BT474 cells were incubated in normoxic, nutrient replete conditions (N10) and in hypoxic, low lipid conditions (H1). […] Additional analysis also found significant upregulation of 30 genes related to fatty acid synthesis (FIG. 3D).
It was then compared how many of the 1075 hypoxia and low lipid stress responsive genes were affected by siRNA mediated knockdown of ACSS2 (siACSS2) and VY-3-135 treatment.

sgACSS2 Brpkp110 tumors = assay: sgACSS2 (Acss2 knockout) Brpkp110 tumor xenograft growth in NSG mice; assay type: in vivo, mouse; details: tumors lacking ACSS2 expression (FIG. 5F)
Source text: CRISPR-Cas9 pools of Brpkp110 and A7C11 were generated using single guide RNAs against exon 1 in mouse Acss2. Cas9 and guide RNAs were introduced into Brpkp110 and A7C11 cell by lentiviral infection. Briefly, HEK293T cells were transfected (Lipofectamine 2000) with psPAX2, pVSV-G, and pLentiCRISPRV2-blast containing a single guide RNA cloned into the BsmBI site (GE Healthcare). Transduced pools of Brkp110 and A7C11 cells were selected using blasticidin S.
For BT474 mouse xenograft studies 5-6 week old female NSG […] were anesthetized and one 17β-estradiol 60 day release pellet (Innovative Research of America Cat. No. SE-121) was injected subcutaneously via 10 gauge precision trochar into the lateral side of the neck between the ear and shoulder. 24 hours later 10^5 BT474 luciferase positive cells in 100 μl PBS:matrigel (growth factor reduced) were injected subcutaneously into the hind limb. For A7C11 and Brpkp110 xenografts, 5×10^5 cells in 100 μl PBS:Matrigel (growth factor reduced Corning Cat. No. 356231) were subcutaneously injected into the hindlimb of 5-6 week old female NSG mice […]. […] Tumors were measured thrice weekly via caliper measurement and tumor volume calculated as (L×W^2)/2 (where L is the longer of the 2 measurements). […]

recombinant human ACSS2 = target: T1, recombinant human ACSS2 (Homo sapiens, UniProt Q9NR19); assay: ACSS2 biochemical assay (Transcreener AMP assay); details: in vitro biochemical TranScreener assay; mean±S.D., n≥3 (FIG. 1C)
T1 construct: purchased Origene TP304260
Description: ACSS2 enzyme activity was measured using the TRANSCREENER® TRF AMP/GMP assay (Bellbrook Labs). Recombinant ACSS2 was purchased from Origene. The assay was performed in white, opaque, low volume 384 well plates. Test compounds were diluted in 100% DMSO and then 100 nL of each dilution was transferred using the Janus MDT Nanohead to assay plates containing 3 μL ACSS2 (2.5 nM) in assay buffer (30 mM HEPES, pH 7.4, 140 mM NaCl, 2 mM MgCl2, 5 mM sodium acetate, 2 mM DTT, 0.005% Brij35). Three microliters of substrate mix containing 100 μM ATP and 10 μM coenzyme A was added to the plates followed by a 120 min incubation. The final concentrations of enzyme and substrates in the reaction mix was 1.25 nM ACSS2, 50 μM ATP, and 5 μM coenzyme A. After incubation, 3 μL of terbium conjugated AMP antibody and AMP tracer was added to the plates according to the methods described by BellBrook Labs. After an additional 30 min, the HTRF signal was measured using an Envision Plate reader. Data were normalized to % inhibition, where 100% inhibition is equal to the counts obtained in the absence of ACSS2, and 0% inhibition is equal to the counts obtained in the complete reaction including a DMSO control.
A robust biochemical screening assay was set up for testing compounds as potential ACSS2 inhibitors. […]

T1 sequence (Q9NR19 whole entry): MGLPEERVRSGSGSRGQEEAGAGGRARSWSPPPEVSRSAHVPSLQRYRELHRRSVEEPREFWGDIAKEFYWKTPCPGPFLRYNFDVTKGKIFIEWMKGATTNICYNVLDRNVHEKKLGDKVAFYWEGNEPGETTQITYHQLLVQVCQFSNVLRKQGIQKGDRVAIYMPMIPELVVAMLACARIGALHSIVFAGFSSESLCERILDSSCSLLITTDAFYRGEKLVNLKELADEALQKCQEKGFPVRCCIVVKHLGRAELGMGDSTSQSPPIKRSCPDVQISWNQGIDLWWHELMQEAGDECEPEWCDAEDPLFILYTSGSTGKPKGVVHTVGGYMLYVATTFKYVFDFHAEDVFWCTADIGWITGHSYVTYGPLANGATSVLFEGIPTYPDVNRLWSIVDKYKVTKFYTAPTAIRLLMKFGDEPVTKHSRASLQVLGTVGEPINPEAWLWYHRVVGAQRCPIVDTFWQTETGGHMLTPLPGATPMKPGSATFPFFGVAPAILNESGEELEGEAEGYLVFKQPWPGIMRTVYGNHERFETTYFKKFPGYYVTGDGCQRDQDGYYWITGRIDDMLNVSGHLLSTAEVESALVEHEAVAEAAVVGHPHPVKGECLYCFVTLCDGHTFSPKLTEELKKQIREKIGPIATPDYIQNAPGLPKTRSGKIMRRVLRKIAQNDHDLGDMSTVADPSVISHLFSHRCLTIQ

IC50 (recombinant human ACSS2): 44 ± 3.85 nM
SMILES: CCn1c(C(O)(c2ccccc2)c2ccccc2)nc2ccc(C(=O)NC[C@@H](C)O)cc21 [VY-3-135, (R)-1-ethyl-2-(hydroxydiphenylmethyl)-N-(2-hydroxypropyl)-1H-benzo[d]imidazole-6-carboxamide]
transcriptional regulation of genes in response to hypoxia and low lipid stress (BT474 cells): has a minimal effect on the transcriptional regulation of genes in response to hypoxia and low lipid stress
sgACSS2 Brpkp110 tumor growth (sgACSS2 Brpkp110 tumors): did not further affect the growth of Brpkp110 sgACSS2 tumors; also recorded: no further effect on tumor growth
